Test results taken from patent US20190001002A1, “DRUG DESIGN FOR APPLICATION-DEPENDENT PAYLOAD, CONTROLLED PHARMACOKINETIC DISTRIBUTION, AND RENAL CLEARANCE” (General Electric Company, priority 2017, published 2019).
Read-outs that look alike come from different tables or passages of the source.

Experiments:
[1] = Pharmacokinetic modeling of active element (iodine or tantalum) concentration in pig blood/plasma after contrast agent injection; assay type: in vivo; settings: plasma, other: injection
From the text: Given this illustration of endothelial permeability, it may be appreciated that, immediately after administration, small-molecule contrast agents begin to distribute from the blood pool into interstitial fluid. Due to this “distribution phase”, the concentration of the contrast agent in the blood pool becomes immediately diluted by a factor of two or more in the first minutes after injection. This is illustrated in FIG. 3 where the concentration of the contrast agent iopromide in pig plasma is illustrated as a function of time, with both a distribution phase and elimination phase being evident.
This distribution occurs at a relatively fast rate, with a half-life (T½a) on the order of minutes and is denoted as the distribution phase in FIG. 3. […] Therefore, the concentration of the molecule in the blood would decrease approximately four fold in much less than 10 minutes due to this initial distribution process alone. However, the drug is simultaneously cleared from the blood by the kidneys at a slower rate, with a T½ on the order of 1-2 hours (denoted as the elimination phase in FIG. 3), resulting in an additional lowering of the concentration in the blood.
In a separate analysis, PK modeling was obtained by analyzing the concentration of the active element (iodine or tantalum) in blood samples taken from 2 to 240 minutes after contrast agent injection. […]

[2] = Contrast-enhanced liver CT scans of swine in fat-equivalent encasements, multi-reader image quality assessment; assay type: in vivo; settings: swine CT in adipose-equivalent encasements, relative to TaCZ, FIG. 6
Description: The scans were performed one day to one week apart, and the scan sequence was randomized. During scanning, the pigs were encased in plastic fat-equivalent encasements to emulate a range of large patient sizes. Scans were performed in the pigs' livers at several time points from 30 to 300 seconds after injection. Image quality at each time point was graded by radiologists using predefined criteria such as image contrast in specified vessels.
In FIG. 6, images 220 on the left were acquired using a conventional iodinated contrast agent, iopromide, while images 220 on the right were acquired using the TaCZ nanoparticle contrast agent described above. Vertically, the images are arranged based on patient size.
In FIG. 7, the results of the multi-reader assessment are provided in graphical form.

COCC(=O)Nc1c(I)c(C(=O)NCC(O)CO)c(I)c(C(=O)N(C)CC(O)CO)c1I (stereo not drawn) [iopromide]
half-life ([1]; FIG. 3, read-out: distribution-phase half-life (T½a) in plasma): < 0.0833 h | half-life ([1]; cleared from the blood by the kidneys, FIG. 3, read-out: clearance half-life T½ (elimination phase)): 1 to 2 h | image contrast enhancement as patient size (and X-ray energy) increases [2]: decreases
